Reference: patent US20010055565A1, “Method of detecting cyclooxygenase-2” (G.D. Searle & Co., priority 1995, published 2001)

**Q.** With COc1ccc(-c2cc(CO)nn2-c2ccc(S(N)(=O)=O)cc2)cc1I [Example 5, 4-[3-(Hydroxymethyl)-5-(3-iodo-4-methoxyphenyl)-1H-pyrazol-1-yl]benzenesulfonamide] as the molecule, how does the melting point read?
**A.** 192.3 to 193.3 °C

**Q.** With COc1ccc(-c2cc(C(F)(F)F)nn2-c2ccc(S(N)(=O)=O)cc2)cc1I [Example 7, 4-[5-(3-Iodo-4-methoxyphenyl)-3-trifluoromethyl-1H-pyrazol-1-yl]benzenesulfonamide] as the molecule, how does the melting point read?
**A.** 183.1 to 185.6 °C

**Q.** Which melting point does the source give for COc1ccc(-c2cc(C(F)F)nn2-c2ccc(S(N)(=O)=O)cc2)cc1I [Example 6, 4-[3-(Difluoromethyl)-5-(3-iodo-4-methoxyphenyl)-1H-pyrazol-1-yl]benzenesulfonamide] here?
**A.** 184.2 to 188.4 °C
